The first test concerns Human Umbilical Vein Endothelial Cells (HUVECs). As to the kind of experiment: Cell scratch experiment, inhibition of endothelial cell migration. The test is classed as cell-based. Also on record: Ranking by experiment results: dose or concentration left out as unconfirmed. The conditions noted are these: single medicine; 9 h intervention; FIG. 4. From the text: Experiment: cell scratch experiments were used to quantitively measure the inhibition of medicines on migration. […] Sterile operation had to be ensured during cell scrapping process. Human Umbilical Vein Endothelial Cells (HUVECs) available from Cascade Biologics (Portland, USA) were repeatably cultured with the supplier's criterions; Matrine, quercetin, emodin, evodiamine, genistein, and aconitine were purchased from National Institute for the Control of Pharmaceutical and Biological Products, and their experimental density were set at 10 mM as indicated by literature. HUVECs were cultured on 12-plate coated by 0.1% gelatin, the cells were inactivated after 2 hours under the conditions of 5% CO2, 37° C. and 10 ug/ml of Mitonycin C. Cell scraper about 1 mm in width was used to scrap on the fused surface of single-layer of cells. Standard endothelial cell growth medium (ECGM) free of medicine application was taken as control group. Pictures were taken at 6 h−10 h of medicine intervention by Nikon digital camera, with migration distance being scaled by configure software. The experiment was repeated five times. The […] ability of the medicines was measured by Migration Inhibition Rate, determined as:
Migration Inhibition Rate=(migration distance of control group−migration distance of experimental group)/migration distance of control group
Regarding `O=C1CCC[C@@H]2[C@H]3CCCN4CCC[C@@H](CN12)[C@@H]34` [Matrine], the “inhibition on endothelial cell migration (in words)” value is on record as “strongest inhibition”.

The test is the same for the next values; noted with them: single medicine; rank of migration inhibition among six medicines; 9 h.
For `CCN1C[C@]2(COC)[C@H](O)C[C@H](OC)[C@@]34[C@@H]5C[C@@]6(O)[C@H](OC(=O)c7ccccc7)[C@@H]5[C@@](OC(C)=O)([C@@H]([C@H](OC)[C@H]23)[C@@H]14)[C@@H](O)[C@@H]6OC` [Aconitine], the “Ranking by experiment results” value turned out to be 6.
As for `Cc1cc(O)c2c(c1)C(=O)c1cc(O)cc(O)c1C2=O` [Emodin], the “Ranking by experiment results” value is recorded as 3.
Same read-out and setting: with `O=c1c(-c2ccc(O)cc2)coc2cc(O)cc(O)c12` [Genistein] the figure was 5; with `O=C1CCC[C@@H]2[C@H]3CCCN4CCC[C@@H](CN12)[C@@H]34` [Matrine], 1.
Same read-out and setting: in the case of `O=c1c(O)c(-c2ccc(O)c(O)c2)oc2cc(O)cc(O)c12` [Quercetin] it was 2.
For Evodiamine, the “Ranking by experiment results” value worked out at 4.
